These results are taken from patent US11466006B2, “Dual selective PI3 delta and gamma kinase inhibitors” (Rhizen Pharmaceuticals SA, priority 2013, dated 2022).

The conditions of data set [1]: reported at 55th ASH Annual Meeting 2013; cited from earlier work.
For the next data set, the target named is PI3Kδ (Homo sapiens, UniProt O00329). The data set can be described thus: Fluorescent (HTRF) determination of PI3 kinase enzyme activity, delta isoform. The note with it: Table 1, unit printed in cell; read-out: IC50 Pi3Kδ. More on the design: purchased Millipore (assay kit). The class given is biochemical. The text has this:
(§1) Phosphoinositide 3 kinases (PI3K) belong to a class of lipid kinases that play a critical role in the regulation of several key cellular processes. The PI3K are capable of phosphorylating the 3-hydroxy position of phosphoinositols thereby generating second messengers involved in downstream signalling events. The homogenous time resolved fluorescence (HTRF) assay allows detection of 3,4,5-triphosphate (PIP3) formed as a result of phosphorylation of phosphotidylinositol 4,5-biphosphate (PIP2) by PI3K isoforms such as α, β, γ or δ.
(§2) PI3K isoform activity for α, β, γ or δ was determined using a PI3K human HTRF™ Assay Kit (Millipore, Billerica, Mass.) with modifications. All incubations were carried out at room temperature. Briefly, 0.5 μl of 40× inhibitor (in 100% DMSO) or 100% DMSO were added to each well of a 384-well white plate (Greiner Bio-One, Monroe, N.C.) containing 14.5 μl 1× reaction buffer /PIP2 (10 mM MgCl2, 5 mM DTT, 1.38 μM PIP2) mix with or without enzyme, followed by 5 μl/well of 400 μM ATP and incubated for an additional 30 minutes. Reaction was terminated by adding 5 μl/well stop solution (Millipore, Billerica, Mass.). […] HRTF ratio was measured on a microplate reader (BMG Labtech., Germany) at an excitation wavelength of 337 nm and emission wavelengths of 665 and 615 nm with an integration time of 400 msec counting delay of 50 msec.

A further data set has as its target Pi3K γ (Homo sapiens, UniProt P48736). The experiment in a line: Fluorescent (HTRF) determination of PI3 kinase enzyme activity, gamma isoform. The class given is biochemical. Details: purchased Millipore (assay kit). As to conditions: Table 1, unit printed in cell; read-out: IC50 Pi3K γ.
Source text: as §1, §2

A value given as a limit tells only on which side of the number the result lay.

Sequence of Pi3K γ (P48736 whole entry, canonical isoform): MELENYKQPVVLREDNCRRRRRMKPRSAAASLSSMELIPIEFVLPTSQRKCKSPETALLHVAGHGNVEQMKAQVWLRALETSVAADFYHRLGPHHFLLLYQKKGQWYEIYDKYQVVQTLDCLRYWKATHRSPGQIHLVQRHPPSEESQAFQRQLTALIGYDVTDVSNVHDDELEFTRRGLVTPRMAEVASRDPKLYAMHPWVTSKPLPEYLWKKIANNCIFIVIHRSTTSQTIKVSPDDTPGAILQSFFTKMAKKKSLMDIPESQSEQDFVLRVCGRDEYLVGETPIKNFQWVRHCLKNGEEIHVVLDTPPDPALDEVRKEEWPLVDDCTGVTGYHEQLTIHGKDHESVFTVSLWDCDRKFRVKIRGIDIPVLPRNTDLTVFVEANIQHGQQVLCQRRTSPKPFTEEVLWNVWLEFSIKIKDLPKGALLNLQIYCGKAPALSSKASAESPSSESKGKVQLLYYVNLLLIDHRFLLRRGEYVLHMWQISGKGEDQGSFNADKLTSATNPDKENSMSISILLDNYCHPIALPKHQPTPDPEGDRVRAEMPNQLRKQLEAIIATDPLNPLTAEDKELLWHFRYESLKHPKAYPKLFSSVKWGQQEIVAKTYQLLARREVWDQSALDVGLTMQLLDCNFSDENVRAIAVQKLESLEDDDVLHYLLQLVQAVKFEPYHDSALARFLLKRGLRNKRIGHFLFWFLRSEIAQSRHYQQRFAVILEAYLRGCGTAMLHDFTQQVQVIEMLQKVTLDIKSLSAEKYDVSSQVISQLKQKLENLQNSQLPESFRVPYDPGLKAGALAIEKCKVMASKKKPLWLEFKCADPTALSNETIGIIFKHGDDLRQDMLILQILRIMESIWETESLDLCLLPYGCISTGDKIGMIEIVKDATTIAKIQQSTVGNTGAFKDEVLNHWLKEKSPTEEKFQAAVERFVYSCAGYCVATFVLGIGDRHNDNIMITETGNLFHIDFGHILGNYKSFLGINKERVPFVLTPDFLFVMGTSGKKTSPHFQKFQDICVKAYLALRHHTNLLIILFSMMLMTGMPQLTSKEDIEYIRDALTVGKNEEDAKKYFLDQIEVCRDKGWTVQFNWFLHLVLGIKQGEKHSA
Sequence of PI3Kδ (O00329 whole entry, canonical isoform): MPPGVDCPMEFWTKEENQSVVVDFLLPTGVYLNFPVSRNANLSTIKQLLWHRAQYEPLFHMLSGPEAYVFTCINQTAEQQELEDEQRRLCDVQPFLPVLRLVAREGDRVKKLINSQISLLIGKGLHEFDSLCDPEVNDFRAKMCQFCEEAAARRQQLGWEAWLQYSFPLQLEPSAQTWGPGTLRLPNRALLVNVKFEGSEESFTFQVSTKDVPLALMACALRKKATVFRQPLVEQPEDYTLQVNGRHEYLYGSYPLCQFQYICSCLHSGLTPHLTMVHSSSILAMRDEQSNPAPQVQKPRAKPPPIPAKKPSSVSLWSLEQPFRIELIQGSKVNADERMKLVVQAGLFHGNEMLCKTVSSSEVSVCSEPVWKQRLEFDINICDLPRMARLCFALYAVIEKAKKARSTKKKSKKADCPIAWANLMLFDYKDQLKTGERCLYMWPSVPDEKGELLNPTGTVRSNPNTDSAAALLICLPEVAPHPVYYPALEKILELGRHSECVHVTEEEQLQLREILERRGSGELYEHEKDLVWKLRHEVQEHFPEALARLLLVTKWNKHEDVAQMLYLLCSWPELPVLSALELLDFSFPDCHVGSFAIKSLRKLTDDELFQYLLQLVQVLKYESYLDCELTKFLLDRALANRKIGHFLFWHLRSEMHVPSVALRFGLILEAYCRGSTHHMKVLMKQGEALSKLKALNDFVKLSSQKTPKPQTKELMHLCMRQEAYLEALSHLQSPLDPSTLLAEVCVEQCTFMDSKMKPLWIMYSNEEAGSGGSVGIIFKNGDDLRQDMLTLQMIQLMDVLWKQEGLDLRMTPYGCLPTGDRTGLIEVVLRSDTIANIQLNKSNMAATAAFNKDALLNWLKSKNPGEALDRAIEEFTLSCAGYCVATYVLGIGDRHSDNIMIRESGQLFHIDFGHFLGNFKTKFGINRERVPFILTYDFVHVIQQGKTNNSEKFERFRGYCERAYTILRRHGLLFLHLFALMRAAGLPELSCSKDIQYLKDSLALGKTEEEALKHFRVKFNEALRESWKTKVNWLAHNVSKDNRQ
Sequence of PI3Kδ (P27986 whole entry partner, canonical isoform): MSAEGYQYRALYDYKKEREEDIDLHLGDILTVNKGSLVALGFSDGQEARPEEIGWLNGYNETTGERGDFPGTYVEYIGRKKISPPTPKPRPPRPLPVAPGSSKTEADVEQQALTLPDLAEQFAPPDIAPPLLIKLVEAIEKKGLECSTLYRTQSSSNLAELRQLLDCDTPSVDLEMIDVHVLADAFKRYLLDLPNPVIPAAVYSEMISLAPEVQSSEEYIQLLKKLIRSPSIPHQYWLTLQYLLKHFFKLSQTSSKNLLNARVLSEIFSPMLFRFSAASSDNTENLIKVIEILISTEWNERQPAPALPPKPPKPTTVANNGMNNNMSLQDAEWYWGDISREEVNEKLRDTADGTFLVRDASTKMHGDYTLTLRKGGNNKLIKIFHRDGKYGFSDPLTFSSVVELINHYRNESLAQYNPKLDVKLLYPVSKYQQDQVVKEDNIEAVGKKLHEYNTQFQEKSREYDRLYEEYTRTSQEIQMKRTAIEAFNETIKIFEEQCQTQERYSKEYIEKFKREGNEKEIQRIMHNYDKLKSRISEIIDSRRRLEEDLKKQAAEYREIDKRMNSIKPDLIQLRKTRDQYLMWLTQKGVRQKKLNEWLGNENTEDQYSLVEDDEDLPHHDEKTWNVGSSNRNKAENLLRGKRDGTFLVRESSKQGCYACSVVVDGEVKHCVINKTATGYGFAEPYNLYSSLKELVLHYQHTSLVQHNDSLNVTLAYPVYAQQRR

Turning to `C[C@H](Nc1ncnc2[nH]cnc12)c1cc2cccc(Cl)c2c(=O)n1-c1ccccc1` [IPI-45], the “maximum tolerated dose (MTD)” value in data set [1] is reported as 75 mg BID. Regarding `CC[C@@H](Nc1ncnc2[nH]cnc12)c1oc2ccccc2c(=O)c1-c1cccc(F)c1` [Compound A2, (R)-2-(1-(9H-purin-6-ylamino)propyl)-3-(3-fluorophenyl)-4H-chromen-4-one], the concentration for half-maximal inhibition (IC50) on PI3Kδ and on Pi3K γ was above 10 µM throughout.
